Entries after “also recorded” stand apart in the source; their conditions may differ.
Key:
[1] = Urinary albumin excretion in renal transplant recipients; format: in vivo, human
Description: (§1) The study was conducted on 80 renal transplant recipients followed at the Renal Transplant Department of Necker hospital.
For human samples, urinary creatinine and albumin were determined using a Hitachi 917 analyzer (Roche Diagnostics), whereas plasma creatinine and sirolimus were evaluated using a Synchron Cx4 autoanalyser (Beckman Coulter) and high-performance liquid chromatography, respectively.

[2] = tested on: glomerular cells (TUNEL-positive nuclei); assay: Glomerular TUNEL apoptosis assay in kidney transplant biopsies; format: in vivo, human; details: renal transplant recipients with lower eGFR, sirolimus-treated versus not treated
Description: as §1
Apoptosis was detected in 4-μm sections of paraffin-embedded kidneys by TUNEL assay using the In Situ Cell Death Detection kit (Roche) according to the manufacturer's protocol. The glomerular apoptotic index was calculated as the number of glomeruli with at least one TUNEL-positive nuclei for the total number of glomeruli. All the microscopic fields of a whole kidney section were quantified.

## CO[C@H]1C[C@@H]2CC[C@@H](C)[C@@](O)(O2)C(=O)C(=O)N2CCCC[C@H]2C(=O)O[C@H]([C@H](C)C[C@@H]2CC[C@@H](O)[C@H](OC)C2)CC(=O)[C@H](C)/C=C(\C)[C@@H](O)[C@@H](OC)C(=O)[C@H](C)C[C@H](C)/C=C/C=C/C=C/1C [sirolimus]
[1]; cohort of kidney transplant recipients at different stages of renal failure
  development of albuminuria / proteinuria upon sirolimus treatment: only patients with severe nephron reduction developed albuminuria; also recorded: marked proteinuria
[1]; patient 1, on sirolimus administration
  urinary albumin excretion, serial follow-up: severe albuminuria
[1]; patient 2, after removal of sirolimus
  urinary albumin excretion, serial follow-up: reversed albuminuria
[2]
  glomerular apoptosis (TUNEL): marked increased of apoptosis; also recorded: increased glomerular apoptosis

From patent US20150018383A1, “BIOMARKERS OF RENAL DISORDERS” (Institut National de la Sante et de la Recherche Medicale …, priority 2011, published 2015)
